The text below walks through data of PubChem BioAssay (NCI).

Test systems include OVCAR-5 ovarian; 786-0 renal; OVCAR-8 ovarian; SW-620 colon; MOLT-4 leukemia; UO-31 renal; SK-MEL-2 melanoma; NCI/ADR-RES ovarian; SK-MEL-5 melanoma; DU-145 prostate.
Holding throughout (assay): DTP human tumour cell line panel, 48 h

For orientation: TGI means the concentration giving total growth inhibition. A lower TGI goes with more potent growth arrest. As usually defined, the GI50 is the concentration giving 50% growth inhibition.

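Results reflect a 48-hour exposure of cells in 96-well plates to compound at five concentrations. GI50 marks 50% less growth. The concentration for full growth arrest is given as TGI.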

Regarding `O=C1CCCC2C3CC(CN12)C1CCCCN1C3` (configuration not stated), the TGI in the test with OVCAR-5 ovarian, in the test with 786-0 renal, in the test with OVCAR-8 ovarian, in the test with SW-620 colon, with MOLT-4 leukemia and with UO-31 renal was greater than 100 µM throughout. Also, the TGI in the test with SK-MEL-2 melanoma, with NCI/ADR-RES ovarian, in the test on SK-MEL-5 melanoma and in the test with DU-145 prostate was greater than 100 µM each time.

For `C=CCSSCC=C`, the TGI with OVCAR-5 ovarian is greater than 100 µM; in the test on 786-0 renal, greater than 56.5 µM; in the test on OVCAR-8 ovarian, greater than 74.4 µM; with SW-620 colon it was greater than 100 µM; with MOLT-4 leukemia, greater than 100 µM; with UO-31 renal it was greater than 100 µM. Moreover, the concentration for total growth inhibition (TGI) with SK-MEL-2 melanoma was greater than 100 µM; with NCI/ADR-RES ovarian, greater than 73.2 µM; with SK-MEL-5 melanoma, greater than 100 µM; in the test on DU-145 prostate it was greater than 100 µM.

Turning to `COc1c(OC/C=C(\C)CCC=C(C)C)ccc2ccc(=O)oc12`, the TGI in the test with OVCAR-5 ovarian, in the test with 786-0 renal, with OVCAR-8 ovarian, in the test with SW-620 colon, in the test on MOLT-4 leukemia and with UO-31 renal was greater than 100 µM in each case. Also, the TGI in the test with SK-MEL-2 melanoma, in the test on NCI/ADR-RES ovarian, in the test with SK-MEL-5 melanoma and with DU-145 prostate was greater than 100 µM throughout.

For the molecule `O=C1OCc2cc3cc4c(cc3c(-c3ccc5c(c3)OCO5)c21)OCO4` (tested in a mixture with another compound), the TGI with OVCAR-5 ovarian is 96.8 µM; in the test with OVCAR-8 ovarian it was greater than 100 µM; in the test with SW-620 colon, greater than 100 µM; in the test on MOLT-4 leukemia it was 72.5 µM; in the test with UO-31 renal, 63.8 µM; with SK-MEL-2 melanoma, 68 µM. Also, the concentration for total growth inhibition (TGI) in the test on NCI/ADR-RES ovarian is greater than 100 µM; in the test on SK-MEL-5 melanoma, 33.6 µM; in the test on DU-145 prostate, 55.2 µM.

As to `CN1CC(CNC(=O)OCc2ccccc2)CC2c3cccc4c3c(cn4C)CC21` (configuration not stated), the GI50 in the test on OVCAR-5 ovarian was 1.98 µM; with OVCAR-8 ovarian, 1.75 µM; in the test with SW-620 colon, 1.59 µM; with MOLT-4 leukemia, 2.36 µM; in the test with UO-31 renal, 1.24 µM; with SK-MEL-2 melanoma it was 1.88 µM. Also, the GI50 in the test with NCI/ADR-RES ovarian was 1.82 µM; with SK-MEL-5 melanoma it was 1.49 µM; with DU-145 prostate it was 3.88 µM. Moreover, the TGI was found to be 4.91 µM with OVCAR-5 ovarian; 3.51 µM in the test with OVCAR-8 ovarian; 3.12 µM with SW-620 colon; 5.25 µM in the test on MOLT-4 leukemia; 4.22 µM with UO-31 renal; 3.45 µM with SK-MEL-2 melanoma. Also, the TGI in the test on NCI/ADR-RES ovarian was 4.49 µM; in the test on SK-MEL-5 melanoma, 2.86 µM; in the test on DU-145 prostate, 14.4 µM.

Regarding `c1ccc(C[N+]23CN4CN(CN(C4)C2)C3)cc1`, the TGI in the test on OVCAR-5 ovarian was greater than 100 µM; in the test on 786-0 renal, 46.8 µM; in the test on OVCAR-8 ovarian, 81.8 µM; with SW-620 colon, 69.5 µM; in the test with MOLT-4 leukemia, 43.9 µM; in the test on UO-31 renal, 43.7 µM. In addition, the TGI with SK-MEL-2 melanoma is 34.6 µM; with NCI/ADR-RES ovarian, greater than 100 µM; in the test with SK-MEL-5 melanoma it was 50 µM; in the test with DU-145 prostate, 91.8 µM.

With `O=C1OC2CC=CC1C2` (configuration not stated), the total growth inhibition concentration (TGI) in the test on OVCAR-5 ovarian, in the test with OVCAR-8 ovarian, in the test on SW-620 colon, in the test with MOLT-4 leukemia, in the test on UO-31 renal and in the test on SK-MEL-2 melanoma was greater than 100 µM in each case. In addition, the TGI in the test on NCI/ADR-RES ovarian and with SK-MEL-5 melanoma was greater than 100 µM in each case.

On to `COc1cc(/C=C/C(=O)CC(=O)/C=C/c2ccc(O)c(OC)c2)ccc1O`, for which the TGI with OVCAR-5 ovarian amounted to 35.3 µM; with 786-0 renal, 10.8 µM; with OVCAR-8 ovarian, 28.4 µM; in the test on SW-620 colon it was 21.2 µM; in the test on MOLT-4 leukemia, 18 µM; in the test on UO-31 renal, 24.8 µM. For the same molecule, the TGI in the test on SK-MEL-2 melanoma came out at 40.3 µM; in the test with NCI/ADR-RES ovarian it was 27.6 µM; in the test on SK-MEL-5 melanoma, 22.5 µM; with DU-145 prostate, 29.7 µM.

In the case of `O=C(/C=C/c1ccccc1)N1CCCCC1`, the TGI in the test with OVCAR-5 ovarian, in the test with 786-0 renal, with OVCAR-8 ovarian, in the test with SW-620 colon, with MOLT-4 leukemia and in the test on UO-31 renal was greater than 100 µM each time. Also, the TGI with SK-MEL-2 melanoma, in the test with NCI/ADR-RES ovarian, in the test with SK-MEL-5 melanoma and with DU-145 prostate was greater than 100 µM in each case.

As to `Br/C(=N\Nc1nn[nH]n1)c1ccncc1`, the TGI with OVCAR-5 ovarian, in the test with 786-0 renal, with OVCAR-8 ovarian, in the test on SW-620 colon, in the test with MOLT-4 leukemia and in the test on SK-MEL-2 melanoma was greater than 100 µM in each case. Besides, the TGI in the test with NCI/ADR-RES ovarian, in the test with SK-MEL-5 melanoma and in the test on DU-145 prostate was greater than 100 µM throughout.

Take `C=C1C(=O)OC2CC1CCC1(C)OC1CCC(C)=CCCC2(C)O` (configuration not stated): the TGI came out at 19.1 µM in the test with OVCAR-5 ovarian; 7.78 µM in the test with OVCAR-8 ovarian; 3.82 µM in the test with SW-620 colon; 9.2 µM in the test with MOLT-4 leukemia; 18.7 µM in the test with UO-31 renal; 14.2 µM with SK-MEL-2 melanoma. Besides, the TGI in the test on NCI/ADR-RES ovarian is 5.84 µM; in the test on SK-MEL-5 melanoma, 10.2 µM.

As to `O=C(COc1ccc(Cl)c(Cl)c1)N(Cc1ccccc1)Cc1ccc[n+](Cc2ccc(Cl)cc2S(=O)(=O)F)c1`, the total growth inhibition concentration (TGI) in the test with OVCAR-5 ovarian was greater than 100 µM; in the test with 786-0 renal, greater than 100 µM; in the test with OVCAR-8 ovarian, greater than 100 µM; in the test with SW-620 colon it was greater than 100 µM; with MOLT-4 leukemia, 54.8 µM; in the test on UO-31 renal it was greater than 100 µM. The TGI was 70.1 µM in the test with SK-MEL-2 melanoma, greater than 100 µM in the test with NCI/ADR-RES ovarian, 64.7 µM in the test with SK-MEL-5 melanoma and greater than 100 µM with DU-145 prostate.

Consider `Cc1cc(C)nc(SCCc2cccc[n+]2C)n1`, for which the TGI with OVCAR-5 ovarian, with 786-0 renal, in the test with OVCAR-8 ovarian, in the test with SW-620 colon, in the test with MOLT-4 leukemia and in the test with UO-31 renal was greater than 100 µM in each case. Besides, the TGI in the test with NCI/ADR-RES ovarian, in the test on SK-MEL-5 melanoma and in the test with DU-145 prostate was greater than 100 µM in each case.

As to `CCCC(=O)O.CCCC(=O)O.CCCC(=O)O.CCCC(=O)O.[Rh].[Rh]`, the GI50 with OVCAR-8 ovarian was 0.0435 µM; in the test on SW-620 colon, 0.0188 µM; in the test on MOLT-4 leukemia it was 0.0315 µM; in the test on SK-MEL-2 melanoma it was 0.285 µM; in the test on NCI/ADR-RES ovarian, 0.185 µM; in the test on SK-MEL-5 melanoma, 0.107 µM. In addition, in the test on DU-145 prostate, the GI50 is 0.181 µM. In addition, the TGI in the test with OVCAR-8 ovarian was 0.428 µM; in the test on SW-620 colon, 0.0405 µM; in the test on MOLT-4 leukemia, 0.141 µM; with SK-MEL-2 melanoma it was 0.896 µM; in the test with NCI/ADR-RES ovarian it was 0.589 µM; in the test on SK-MEL-5 melanoma it was 0.248 µM. Further, the TGI in the test on DU-145 prostate stood at 0.491 µM.

With `CC(=O)NNC(=O)C1CCCCN1` (configuration not stated), the TGI in the test on OVCAR-5 ovarian, in the test with 786-0 renal, in the test with OVCAR-8 ovarian, in the test on SW-620 colon, in the test with MOLT-4 leukemia and in the test with SK-MEL-2 melanoma was greater than 100 µM in each case. Besides, the total growth inhibition concentration (TGI) in the test with SK-MEL-5 melanoma and with DU-145 prostate was greater than 100 µM each time.

Consider `O=C(Oc1ccc(Cl)cc1[N+](=O)[O-])c1ccccc1`, for which the total growth inhibition concentration (TGI) with OVCAR-5 ovarian, with OVCAR-8 ovarian, in the test with SW-620 colon, in the test on MOLT-4 leukemia, with UO-31 renal and with SK-MEL-2 melanoma was greater than 100 µM each time. In the test on SK-MEL-5 melanoma, this molecule registered a TGI of 36.7 µM.

For `SC1CCCN(Cc2ccccc2)C1` (configuration not stated), the TGI in the test on OVCAR-5 ovarian was greater than 100 µM; with 786-0 renal, greater than 100 µM; with OVCAR-8 ovarian, greater than 100 µM; in the test on SW-620 colon, 72.6 µM; in the test with MOLT-4 leukemia, 78.2 µM; with UO-31 renal, greater than 100 µM. For the same molecule, the TGI in the test on SK-MEL-2 melanoma was greater than 100 µM; with NCI/ADR-RES ovarian, greater than 100 µM; in the test with SK-MEL-5 melanoma it was 35.4 µM; with DU-145 prostate it was greater than 100 µM.

As for `COc1ccc(OC)c(CC(C)N)c1` (configuration not stated), the TGI in the test with 786-0 renal, in the test on OVCAR-8 ovarian, with SW-620 colon, in the test on MOLT-4 leukemia, in the test on UO-31 renal and in the test on SK-MEL-2 melanoma was greater than 100 µM throughout. In the test on SK-MEL-5 melanoma, this molecule gave a TGI greater than 100 µM.
